{"source": "patent US20040248139A1", "about": "“Eit-6, a polypeptide encoded by an estrogen regulated gene” (priority 2001, published 2004)", "key": {"[1]": {"system": "EIT-6 mRNA in BT-474 cells", "assay": "Northern blot of EIT-6 mRNA, BT-474 cells", "type": "cell-based, human", "experimental": "All the cell lines were obtained from the ATCC.\nTo determine if the induction of EIT-6 by estrogen is estrogen receptor-mediated, the effect of estrogen antagonists (4-hydroxy-tamoxifen and ICI 182,780) on EIT-6 mRNA levels was determined. BT-474 cells were cultured with […] (1 μM) or 4-hydroxy-tamoxifen (10 μM) for 6 hours prior to estrogen (10 nM) treatment for an additional 24 hours. […] There are multiple mechanisms by which estrogen can regulate the expression of EIT-6, e.g., (1) directly by transcriptional regulation, (2) directly by influencing mRNA stability, or (3) indirectly through other transcription factors/signaling pathways. […] To further investigate if EIT-6 is a direct or indirect target of estrogen receptors, EIT-6 mRNA levels were measured following estrogen treatment BT-474 cells in the presence of a protein synthesis inhibitor (cycloheximide) (FIG. 2B). The cells were treated with cycloheximide (10 μg/ml) for 16 hours in the presence or absence of estrogen."}, "[2]": {"system": "ZR75-1 breast cancer cells", "assay": "SAGE (serial analysis of gene expression) after estrogen or tamoxifen treatment", "type": "cell-based, human", "details": "10 nM estradiol, 16 h", "text": "(§1) In order to identify genes involved in the response of breast cancer cells to estrogen and tamoxifen, SAGE libraries were generated from an estrogen- dependent human breast cancer cell line (ZR75-1; obtained from the American type Culture Collection (ATTC), Manassas, VA) prior to and following estrogen or tamoxifen treatment. SAGE facilitated the determination of the absolute abundance of thousands of different mRNAs simultaneously in a comprehensive and unbiased way and to detect even slight differences in expression levels between samples [Velculescu et al. (1995) Science 270: 484-487; Polyak et al. (1997) Nature 389:300-305; Lal et al. (1999) Cancer Res. 59:5403-5607; Velculescu et al. (1999) Nature Genetics 23:387-388]. ZR75-1 cells cultured in the absence of steroid hormones (i.e., in phenol red-free culture medium containing charcoal-treated fetal bovine serum (FBS) (5%)) for seven days were split into three aliquots which were then cultured in fresh steroid-free medium containing no additive, 10 nM estradiol, or 10 μM 4-hydroxy-tamoxifen. Cells were harvested from the cultures after sixteen hours and response to the hormone treatment was confirmed by FACS analysis of cell cycle progression and by Northern blot analysis to test for the expression of known estrogen target genes.\nSAGE libraries from untreated, estrogen-treated and tamoxifen-treated ZR75-1 cells were generated using a modified micro-SAGE protocol [Porter et al. (2001) Cancer Res. 61: 5697-5702]. From the three SAGE libraries 140,638 tags were obtained, approximately 45,000 from each library. Hierarchical clustering was applied to data using the Auster program developed by Eisen et al. [(1998) Proc. Natl. Acad. Sci. USA. 95: 14863-14868]. Data was log-transformed and filtered for at least 1 observations abs Val 5 and Maxval-Minval >5. Using these settings 2,818 genes (out of 16,808 total) were included in the analysis that led to the identification of several estrogen- and/or tamoxifen-induced transcripts. […] Linking the UniGene database to the SAGE data identified the cDNAs corresponding to the SAGE tags in most of the cases (Table 1). Genes were named according to their relative abundance in the three SAGE libraries: EIT (Estrogen Induced Tag)-induced by estrogen; TIT (Tamoxifen Induced Tag)-induced by tamoxifen; and DET (Differently Expressed Tag)-differently expressed following estrogen or tamoxifen treatment."}, "[3]": {"system": "EIT-6 mRNA in ZR75-1 cells", "assay": "Northern blot of EIT-6 mRNA, ZR75-1 cells", "type": "cell-based, human", "text": "To confirm the result of the SAGE experiment, probes corresponding to some of the cDNA clones were generated and the induction of the relevant genes was confirmed by Northern blot analysis (FIG. 1A) performed as previously described [Polyak et al. (1997)]. Of the twenty estrogen- or tamoxifen-induced genes (Table 1), only one (EIT-10;cathepsin D) had previously been implicated as a target of ER-transcriptional activation and three had not previously been described at all. In most cases the sequences of the relevant genes provided important clues as to their potential functions (Table 1). Several of the genes are predicted to be involved in the regulation of cell proliferation and/or survival. […]"}, "EIT-6 promoter region": {"system": "EIT-6 promoter region", "details": "~5.5 kb EIT-6 promoter construct co-transfected with estrogen receptor α", "quoted_text": "To further characterize the mechanism by which the estrogen receptor induces EIT-6, a fragment of the proximal EIT-6 promoter was tested for its ability to confer estrogen responsiveness on a luciferase reporter gene. The luciferase construct was generated by subcloning a BAC (bacterial artificial chromosome)-derived fragment of EIT-6 promoter region (approximately 5.5 kb in length) into pBR-pl-luc [Polyak et al. (1997)]. The cells were transfected using FuGene 6 (Roche, Basel, Switzerland) and treated with estrogen the day after transfection. On the day following estrogen treatment luciferase activity was determined using a luciferase assay system (Promega, Madison, Wis.). […] Luciferase and β-galactosidase activity was measured following transient co-transfection of these constructs with the estrogen receptor α-encoding construct (referred to above) and a vector containing a β-galactosidase-encoding cDNA sequence under control of a constitutive (CMV) promoter into HepG2 cells as described above and the values of luciferase activity were normalized for transfection efficiency by calculating ratios of luciferase activity to β-galactosidase activity which was measured using the Aurora GAL-XE reporter gene assay (ICN, Costa Mesa, Calif.). “Fold induction” was calculated according to the following formula:"}, "[4]": {"system": "putative estrogen responsive elements (ERE) in HepG2 cells", "assay": "Luciferase reporter assay, ERE concatamer constructs with estrogen receptor α in HepG2 cells", "quoted_text": "The cells were transfected using FuGene 6 (Roche, Basel, Switzerland) and treated with estrogen the day after transfection. On the day following estrogen treatment luciferase activity was determined using a luciferase assay system (Promega, Madison, Wis.). […] To determine whether these putative EREs could confer estrogen responsiveness, various constructs containing concatemers of each of these elements (in a variety of combinations) up-stream of a luciferase gene were generated (FIG. 2D). These concatamer constructs were generated by subcloning concatamers of PCR-derived fragments (of the EIT-6 promoter region) containing the putative ERE's into pBR-pl-TATA-luc [Polyak et al. (1997) Nature 389:300-305]. Luciferase and β-galactosidase activity was measured following transient co-transfection of these constructs with the estrogen receptor α-encoding construct (referred to above) and a vector containing a β-galactosidase-encoding cDNA sequence under control of a constitutive (CMV) promoter into HepG2 cells as described above and the values of luciferase activity were normalized for transfection efficiency by calculating ratios of luciferase activity to β-galactosidase activity which was measured using the Aurora GAL-XE reporter gene assay (ICN, Costa Mesa, Calif.). “Fold induction” was calculated according to the following formula:\nFold induction=(luciferase activity in estrogen treated cells÷βgalactosidase activity in estrogen treated cells)÷(luciferase activity in control cells÷βgalactosidase activity in control cells)."}, "[5]": {"system": "T47D ER+ breast cancer cells", "assay": "Colony assay, T47D cells", "type": "cell-based, human", "details": "control pCEP4 and EIT-6 transfected cells, charcoal/dextran treated FBS, estrogen 10 nM", "quoted_text": "In order to test whether EIT-6 expresssion influences cell proliferation and/or survival, colony assays were performed. […] T47D ER+breast cancer cells were transfected with a control construct (pCEP4) or the pCEP4-EIT6 construct. Stable transfectants were selected by culturing the cells in the presence of hygromycin for two weeks after which colonies were visualized by crystal violet staining. […] The number of colonies per cm^2 was determined by spot-densitometry-assisted counting using a MultiImage Lightbox (Alfa Innotech, San Leandro, Calif.). Two flasks per experimental group and two independent areas in each flask were analyzed.\nTo test if expression of EIT-6 can confer estrogen independent growth, ER+and estrogen dependent T47D breast cancer cells were transfected with control pCEP4 or pCEP4-EIT6 constructs. Stable transfectants were selected by culturing the cells in phenol red-free medium supplemented with charcoal/dextran treated (and thus steroid hormone depleted) FBS (5%) and hygromycin. Half the flasks contained estrogen (10 nM). After two weeks of dry selection, colonies were visualized by crystal violet staining and counted as described above."}, "ZR75-1 cells": {"system": "ZR75-1 cells", "assay": "FACS analysis of cell cycle progression", "type": "cell-based, human", "details": "steroid-deprived ZR75-1 cells; 10 nM estradiol or 10 μM 4-hydroxy-tamoxifen, 16 h", "text": "as §1"}, "[6]": {"system": "prolyl hydroxylase enzymes", "details": "literature, compared with P2,5D where stated; cited from earlier work"}, "[7]": {"details": "BT-474, 16 h, cycloheximide 10 μg/ml"}}}
{"smiles": "C[C@]12CC[C@@H]3c4ccc(O)cc4CC[C@H]3[C@@H]1CC[C@@H]2O", "note": "[estrogen, estradiol]", "values": [{"measurement": "EIT-6 mRNA levels, separate treatment", "setting": "[1]; [7]", "value": "modestly increased"}, {"measurement": "EIT-6 mRNA levels, estrogen in the presence of cycloheximide", "setting": "[1]; BT-474, cycloheximide 10 μg/ml, 16 h", "value": "much stronger induction"}, {"measurement": "induction of EIT-6 mRNA", "setting": "[1]; BT-474 cells, Northern blot", "value": "~10", "unit": "fold"}, {"measurement": "SAGE tags, E (estrogen-treated)", "setting": "[2]; gene DET-1, untreated C = 4", "value": 15}, {"measurement": "SAGE tags, E (estrogen-treated)", "setting": "[2]; gene DET-2, untreated C = 3", "value": 13}, {"measurement": "SAGE tags, E (estrogen-treated)", "setting": "[2]; gene DET-13, untreated C = 7", "value": 1}, {"measurement": "SAGE tags, E (estrogen-treated)", "setting": "[2]; gene DET-14, untreated C = 4", "value": 1}, {"measurement": "SAGE tags, E (estrogen-treated)", "setting": "[2]; gene DET-15 (USF2), untreated C = 11", "value": 1}, {"measurement": "SAGE tags, E (estrogen-treated)", "setting": "[2]; gene DET-16, untreated C = 7", "value": 0}, {"measurement": "SAGE tags, E (estrogen-treated)", "setting": "[2]; gene DET-17 (SULT 1A), untreated C = 0", "value": 1}, {"measurement": "SAGE tags, E (estrogen-treated)", "setting": "[2]; gene EIT-1, untreated C = 1", "value": 14}, {"measurement": "SAGE tags, E (estrogen-treated)", "setting": "[2]; gene EIT-2 (TIM17B), untreated C = 1", "value": 14}, {"measurement": "SAGE tags, E (estrogen-treated)", "setting": "[2]; gene EIT-3, untreated C = 2", "value": 19}, {"measurement": "SAGE tags, E (estrogen-treated)", "setting": "[2]; gene EIT-4, untreated C = 2", "value": 18}, {"measurement": "SAGE tags, E (estrogen-treated)", "setting": "[2]; gene EIT-5, untreated C = 5", "value": 27}, {"measurement": "SAGE tags, E (estrogen-treated)", "setting": "[2]; gene EIT-6, untreated C = 5", "value": 26}, {"measurement": "SAGE tags, E (estrogen-treated)", "setting": "[2]; gene EIT-10 (Cathepsin D), untreated C = 112", "value": 451}, {"measurement": "SAGE tags, E (estrogen-treated)", "setting": "[2]; gene TIT-1, untreated C = 0", "value": 4}, {"measurement": "SAGE tags, E (estrogen-treated)", "setting": "[2]; gene TIT-2, untreated C = 0", "value": 3}, {"measurement": "SAGE tags, E (estrogen-treated)", "setting": "[2]; gene TIT-3, untreated C = 8", "value": 28}, {"measurement": "SAGE tags, E (estrogen-treated)", "setting": "[2]; gene TIT-4, untreated C = 7", "value": 27}, {"measurement": "SAGE tags, E (estrogen-treated)", "setting": "[2]; gene TIT-5, untreated C = 9", "value": 19}, {"measurement": "induction of EIT-6 mRNA", "setting": "[3]", "value": "~5", "unit": "fold"}, {"measurement": "luciferase activity", "setting": "EIT-6 promoter region", "value": "modest but reproducible induction"}, {"measurement": "fold induction of luciferase by estrogen", "setting": "[4]; E4 construct (3 copies of the E4 ERE), HepG2, normalized to β-galactosidase", "value": "4-5 fold"}, {"measurement": "fold induction of luciferase by estrogen", "setting": "[4]; VIT construct (two copies of vitellogenin consensus ERE), HepG2", "value": "10-11 fold"}, {"measurement": "estrogen responsiveness of luciferase constructs", "setting": "[4]; most of the putative ERE combinations, HepG2", "value": "relatively weak"}, {"measurement": "colony numbers on addition of estrogen", "setting": "[5]", "value": "increased colony numbers"}, {"measurement": "S-phase entry", "setting": "ZR75-1 cells", "value": "stimulated rapid S-phase entry"}]}
{"smiles": "O=C(O)CNC(=O)C(=O)O", "note": "[N-oxalylglycine]", "values": [{"measurement": "inhibition of prolyl hydroxylase", "setting": "[6]", "value": "Inhibitory"}]}
{"smiles": "C[C@H](NC(=O)C(=O)O)C(=O)O", "note": "[N-oxalyl-2S-alanine]", "values": [{"measurement": "inhibition of prolyl hydroxylase", "setting": "[6]", "value": "Inhibitory"}]}
{"smiles": "C[C@]12CC[C@@H]3c4ccc(O)cc4C[C@@H](CCCCCCCCC[S+]([O-])CCCC(F)(F)C(F)(F)F)[C@H]3[C@@H]1CC[C@@H]2O", "note": "(stereo partly shown) [ICI 182,780]", "values": [{"measurement": "abolition of estrogen induction of EIT-6 mRNA", "setting": "[1]; BT-474, antagonist (ICI 1 μM or 4-hydroxy-tamoxifen 10 μM) 6 h before estrogen 10 nM for 24 h", "value": "completely"}]}
{"smiles": "C[C@@H]1C[C@@H]([C@H](O)CC2CC(=O)NC(=O)C2)C(=O)[C@@H](C)C1", "note": "[cycloheximide]", "values": [{"measurement": "EIT-6 mRNA levels, separate treatment", "setting": "[1]; [7]", "value": "modestly increased"}]}
{"smiles": "C[C@@H](NC(=O)C(=O)O)C(=O)O", "note": "[N-oxalyl-2R-alanine]", "values": [{"measurement": "inhibition of prolyl hydroxylase", "setting": "[6]", "value": "not"}]}
